The test system of data set [1] is Rattus norvegicus. Put plainly: Inhibition of AChE in po dosed Charles Foster albino Rattus norvegicus (rat) assessed as hydrolysis of acetylthiocholine iodide per mg of protein in hippocampus administered po qd for 7 days measured 1 hr post last dose on day 7 by spectrophotometry (reference value: […]/mg protein). It is filed as functional, organism-based.

In data set [2] the test system is Rattus norvegicus. Put plainly: Inhibition of AChE in po dosed Charles Foster albino Rattus norvegicus (rat) assessed as hydrolysis of acetylthiocholine iodide per mg of protein in prefrontal cortex administered qd for 7 days measured 1 hr post last dose on day 7 by spectrophotometry (reference value: 45.83 +/-0.94 moles/min/mg protein). The format is functional, organism-based.

The test system of data set [3] is Rattus norvegicus. Put plainly: Inhibition of AChE in Charles Foster albino Rattus norvegicus (rat) assessed as hydrolysis of acetylthiocholine iodide per mg of protein in hypothalamus at 10 mg/kg, po qd for 7 days measured 1 hr post last dose on day 7 by spectrophotometry (reference value: […]/mg protein). The format is functional.
For data set [4], the system named is Rattus norvegicus. The experiment in a line: Inhibition of AChE in Charles Foster albino Rattus norvegicus (rat) assessed as hydrolysis of acetylthiocholine iodide per mg of protein in hippocampus at 10 mg/kg, po qd for 7 days measured 1 hr post last dose on day 7 by spectrophotometry (reference value: […]/mg protein). The format is functional.

Data set [5] has as its system Rattus norvegicus. Put plainly: Inhibition of AChE in Charles Foster albino Rattus norvegicus (rat) assessed as hydrolysis of acetylthiocholine iodide per mg of protein in prefrontal cortex at 10 mg/kg, po qd for 7 days measured 1 hr post last dose on day 7 by spectrophotometry (reference value: […]/mg protein). It is filed as functional.
Data set [6] concerns Rattus norvegicus. Put plainly: Inhibition of AChE in po dosed Charles Foster albino Rattus norvegicus (rat) assessed as hydrolysis of acetylthiocholine iodide per mg of protein in hypothalamus administered qd for 7 days measured 1 hr post last dose on day 7 by spectrophotometry (reference value: […]/mg protein). It is filed as functional, organism-based.

In data set [7] the test system is Rattus norvegicus. Put plainly: Inhibition of AChE in Charles Foster albino Rattus norvegicus (rat) assessed as hydrolysis of acetylthiocholine iodide per mg of protein in hypothalamus at 5 mg/kg, po qd for 7 days measured 1 hr post last dose on day 7 by spectrophotometry (reference value: […]/mg protein). The format is functional.
Data set [8] has as its system Rattus norvegicus. Put plainly: Inhibition of AChE in Charles Foster albino Rattus norvegicus (rat) assessed as hydrolysis of acetylthiocholine iodide per mg of protein in hippocampus at 5 mg/kg, po qd for 7 days measured 1 hr post last dose on day 7 by spectrophotometry (reference value: […]/mg protein). The format is functional.
Data set [9] deals with Rattus norvegicus. The experiment in a line: Inhibition of AChE in Charles Foster albino Rattus norvegicus (rat) assessed as hydrolysis of acetylthiocholine iodide per mg of protein in prefrontal cortex at 5 mg/kg, po qd for 7 days measured 1 hr post last dose on day 7 by spectrophotometry (reference value: […]/mg protein). The format is functional.
For data set [10], the system named is Rattus norvegicus. Put plainly: Antiamnesic activity in po dosed scopolamine-induced amnesia Charles Foster albino Rattus norvegicus (rat) model assessed as transfer latency time administered once daily for 8 days measured 1 hr post last dose on day 8 by elevated plus maze test. The format is functional, organism-based.
In data set [11] the test system is Rattus norvegicus. The experiment in a line: Acute toxicity in Charles Foster albino Rattus norvegicus (rat) assessed as mortality at >35 mg/kg of body weight, po measured up to 24 hr. It is filed as organism-based. Conditions: in vivo.
In data set [12] the test system is Rattus norvegicus. The experiment in a line: Antiamnesic activity in scopolamine-induced amnesia Charles Foster albino Rattus norvegicus (rat) model assessed as transfer latency time at 10 mg/kg, po qd for 8 days measured 1 hr post last dose on day 8 by elevated plus maze test. It is filed as functional.
The test system of data set [13] is Rattus norvegicus. Put plainly: Antiamnesic activity in scopolamine-induced amnesia Charles Foster albino Rattus norvegicus (rat) model assessed as transfer latency time at 5 mg/kg, po qd for 8 days measured 1 hr post last dose on day 8 by elevated plus maze test. The format is functional.
Data set [14] has as its system Rattus norvegicus. The experiment in a line: Cognition enhancing activity in Charles Foster albino Rattus norvegicus (rat) assessed as transfer latency time at 10 mg/kg, po qd for 8 days measured 1 hr post last dose on day 8 by elevated plus maze test. The format is functional.
For data set [15], the system named is Rattus norvegicus. The experiment in a line: Antiamnesic activity in scopolamine-induced amnesia Charles Foster albino Rattus norvegicus (rat) model assessed as transfer latency time at 10 mg/kg, po qd for 7 days measured 1 hr post last dose on day 7 by elevated plus maze test. The format is functional.
The subject of data set [16] is Rattus norvegicus. The experiment in a line: Antiamnesic activity in scopolamine-induced amnesia Charles Foster albino Rattus norvegicus (rat) model assessed as transfer latency time at 5 mg/kg, po qd for 7 days measured 1 hr post last dose on day 7 by elevated plus maze test. It is filed as functional.
In data set [17] the test system is Rattus norvegicus. The experiment in a line: Cognition enhancing activity in Charles Foster albino Rattus norvegicus (rat) assessed as transfer latency time at 10 mg/kg, po qd for 7 days measured 1 hr post last dose on day 7 by elevated plus maze test. The format is functional.
The subject of data set [18] is Rattus norvegicus. The experiment in a line: Cognition enhancing activity in Charles Foster albino Rattus norvegicus (rat) assessed as transfer latency time at 5 mg/kg, po qd for 7 days measured 1 hr post last dose on day 7 by elevated plus maze test. It is filed as functional.
In data set [19] the test system is Rattus norvegicus. Put plainly: Cognition enhancing activity in Charles Foster albino Rattus norvegicus (rat) assessed as transfer latency time at 5 mg/kg, po qd for 8 days measured 1 hr post last dose on day 8 by elevated plus maze test. It is filed as functional.

`C(=N/c1ccncc1)/c1ccccc1`: the inhibition result in the data set on Rattus norvegicus [1], in the data set on Rattus norvegicus [2] and with Rattus norvegicus [6] was “Dose-dependent effect” throughout. The Activity in the data set with Rattus norvegicus [3] was determined as 35.5 nmol/min; in the data set with Rattus norvegicus [4], 36.83 nmol/min; in the data set with Rattus norvegicus [5], 33.83 nmol/min; in the data set on Rattus norvegicus [7], 29.33 nmol/min; with Rattus norvegicus [8], 43.83 nmol/min; with Rattus norvegicus [9], 39 nmol/min. The Activity entry in the data set with Rattus norvegicus [10] was “Dose-dependent effect”; in the data set on Rattus norvegicus [11], “Non-toxic”. Further, the Time in the data set on Rattus norvegicus [12] is 42.67 s; with Rattus norvegicus [13] it was 51.5 s; in the data set with Rattus norvegicus [14] it was 47.17 s; in the data set on Rattus norvegicus [15], 48.83 s; with Rattus norvegicus [16], 53.83 s; in the data set with Rattus norvegicus [17], 52.5 s. Besides, the Time in the data set with Rattus norvegicus [18] turned out to be 59.67 s; in the data set on Rattus norvegicus [19] it was 51.83 s.
Regarding `c1ccc(C(=Nc2ccncc2)c2ccccc2)cc1`, the inhibition result in the data set on Rattus norvegicus [1], with Rattus norvegicus [2] and with Rattus norvegicus [6] was “Dose-dependent effect” throughout. The Activity is reported as 29.67 nmol/min with Rattus norvegicus [3]; 37.5 nmol/min in the data set with Rattus norvegicus [4]; 32.83 nmol/min in the data set with Rattus norvegicus [5]; 34.67 nmol/min with Rattus norvegicus [7]; 42.17 nmol/min with Rattus norvegicus [8]; 37 nmol/min with Rattus norvegicus [9]. The Activity entry in the data set with Rattus norvegicus [10] was “Dose-dependent effect”; in the data set on Rattus norvegicus [11], “Non-toxic”. In addition, the Time in the data set on Rattus norvegicus [12] was 41.17 s; in the data set with Rattus norvegicus [13], 41.83 s; with Rattus norvegicus [14], 40.17 s; in the data set with Rattus norvegicus [15], 45.67 s; in the data set on Rattus norvegicus [16] it was 46.83 s; in the data set on Rattus norvegicus [17], 46.83 s. Also, the results for the Time in the data set with Rattus norvegicus [18] and in the data set on Rattus norvegicus [19] were 49.17 s and 44 s, respectively.
Turning to `Oc1ccc(/C=N\c2ccncc2)c(O)c1`, the inhibition entry in the data set with Rattus norvegicus [1], in the data set on Rattus norvegicus [2] and in the data set with Rattus norvegicus [6] was “Dose-dependent effect” in each case. Besides, the Activity in the data set with Rattus norvegicus [3] turned out to be 30 nmol/min; in the data set with Rattus norvegicus [4], 34.83 nmol/min; in the data set on Rattus norvegicus [5], 30.5 nmol/min; in the data set with Rattus norvegicus [7] it was 34.5 nmol/min; with Rattus norvegicus [8] it was 42.83 nmol/min; in the data set on Rattus norvegicus [9] it was 41 nmol/min. For the same compound, the Activity result is “Dose-dependent effect” in the data set with Rattus norvegicus [10] and “Non-toxic” with Rattus norvegicus [11]. Further, the Time in the data set on Rattus norvegicus [12] is 43 s; in the data set on Rattus norvegicus [13], 51.67 s; with Rattus norvegicus [14], 48.67 s; in the data set on Rattus norvegicus [15], 46.5 s; with Rattus norvegicus [16], 51.67 s; in the data set on Rattus norvegicus [17], 52.5 s. Moreover, the Time came to 60.33 s with Rattus norvegicus [18] and 51.17 s with Rattus norvegicus [19].
With `COc1ccc(/C=N\c2ccncc2)cc1OC`, the inhibition result with Rattus norvegicus [1], in the data set on Rattus norvegicus [2] and with Rattus norvegicus [6] was “Dose-dependent effect” each time. Besides, the Activity with Rattus norvegicus [3] is reported as 30.5 nmol/min; with Rattus norvegicus [4], 35.83 nmol/min; in the data set on Rattus norvegicus [5] it was 33.17 nmol/min; with Rattus norvegicus [7] it was 35.5 nmol/min; with Rattus norvegicus [8], 41.17 nmol/min; in the data set on Rattus norvegicus [9] it was 36.5 nmol/min. In addition, the Activity entry with Rattus norvegicus [10] was “Dose-dependent effect”; in the data set on Rattus norvegicus [11], “Non-toxic”. Further, the Time was 42.5 s with Rattus norvegicus [12]; 50.67 s in the data set with Rattus norvegicus [13]; 47.5 s with Rattus norvegicus [14]; 48.5 s in the data set with Rattus norvegicus [15]; 53.83 s in the data set on Rattus norvegicus [16]; 53 s in the data set on Rattus norvegicus [17]. Further, the Time with Rattus norvegicus [18] came out at 58 s; in the data set with Rattus norvegicus [19], 50.33 s.
As for `C/C(=N/c1ccncc1)c1ccc(O)cc1`, the inhibition entry in the data set on Rattus norvegicus [1], in the data set on Rattus norvegicus [2] and in the data set with Rattus norvegicus [6] was “Dose-dependent effect” throughout. Further, the Activity with Rattus norvegicus [3] stood at 29.67 nmol/min; in the data set on Rattus norvegicus [4] it was 36.5 nmol/min; in the data set with Rattus norvegicus [5] it was 33 nmol/min; with Rattus norvegicus [7], 35.17 nmol/min; in the data set with Rattus norvegicus [8], 40.5 nmol/min; in the data set on Rattus norvegicus [9], 39.33 nmol/min. For the same compound, the figures for the Activity entry in the data set with Rattus norvegicus [10] and with Rattus norvegicus [11] were “Dose-dependent effect” and “Non-toxic”, respectively. Besides, the Time with Rattus norvegicus [12] worked out at 41.67 s; in the data set with Rattus norvegicus [13], 50.67 s; with Rattus norvegicus [14], 46.83 s; with Rattus norvegicus [15] it was 47 s; in the data set with Rattus norvegicus [16], 53.17 s; in the data set on Rattus norvegicus [17], 50.83 s. Moreover, the Time turned out to be 59.83 s with Rattus norvegicus [18] and 56.17 s with Rattus norvegicus [19].
Turning to `COc1ccc(/C=N\c2ccncc2)cc1`, the inhibition result in the data set on Rattus norvegicus [1], in the data set on Rattus norvegicus [2] and in the data set on Rattus norvegicus [6] was “Dose-dependent effect” each time. Besides, the Activity is on record as 30.83 nmol/min with Rattus norvegicus [3]; 36.5 nmol/min with Rattus norvegicus [4]; 31 nmol/min with Rattus norvegicus [5]; 35.67 nmol/min in the data set on Rattus norvegicus [7]; 41.5 nmol/min in the data set with Rattus norvegicus [8]; 36 nmol/min with Rattus norvegicus [9]. Further, the Activity entry in the data set on Rattus norvegicus [10] is “Dose-dependent effect”; in the data set on Rattus norvegicus [11], “Non-toxic”. Further, the Time in the data set with Rattus norvegicus [12] is given as 43.17 s; in the data set on Rattus norvegicus [13] it was 50.83 s; in the data set on Rattus norvegicus [14], 46.33 s; with Rattus norvegicus [15], 48.67 s; with Rattus norvegicus [16], 52 s; in the data set on Rattus norvegicus [17], 52.67 s. Moreover, the Time with Rattus norvegicus [18] turned out to be 57.83 s; with Rattus norvegicus [19] it was 49.5 s.
Regarding `Oc1ccccc1/C=N\c1ccncc1`, the inhibition result in the data set with Rattus norvegicus [1], with Rattus norvegicus [2] and in the data set with Rattus norvegicus [6] was “Dose-dependent effect” throughout. Moreover, the Activity in the data set with Rattus norvegicus [3] worked out at 30.5 nmol/min; in the data set with Rattus norvegicus [4], 36.83 nmol/min; with Rattus norvegicus [5], 33 nmol/min; in the data set on Rattus norvegicus [7], 34.33 nmol/min; in the data set with Rattus norvegicus [8], 41.83 nmol/min; in the data set on Rattus norvegicus [9], 37.5 nmol/min. The Activity result in the data set on Rattus norvegicus [10] is “Dose-dependent effect”; in the data set on Rattus norvegicus [11], “Non-toxic”. Moreover, the Time in the data set with Rattus norvegicus [12] turned out to be 42.5 s; with Rattus norvegicus [13], 50.17 s; in the data set with Rattus norvegicus [14], 42.5 s; in the data set with Rattus norvegicus [15], 48.17 s; with Rattus norvegicus [16], 53.5 s; in the data set on Rattus norvegicus [17] it was 52.17 s. Further, the Time with Rattus norvegicus [18] is recorded as 59.83 s; with Rattus norvegicus [19] it was 50.17 s.

These data come from ChEMBL document CHEMBL3045969, “Synthesis and evaluation of some new 4-aminopyridine derivatives as a potent antiamnesic and cognition enhancing drugs” (Med Chem Res, 2012).
